Article PMC10216478, “Development of a Non-Peptide Angiotensin II Type 1 Receptor Ligand by Structural Modification of Olmesartan as a Biased Agonist” (Biomedicines, 2023)
Numbering of substitutions follows the chain as printed.

How the values were obtained:
AT1 Q257A receptor = biological target: T1, AT1 Q257A receptor (Rattus norvegicus, UniProt P25095, Q257A); assay: IP production assay in COS7 cells expressing AT1-Q257A receptor; type: cell-based; conditions: 1 µM ligands or 0.1 µM Ang II, 30 min, n = 5, vs. (-)
T1 construct: expressed in transfected cells; host or cells: COS7
T1 sequence (P25095 1-359 Q257A): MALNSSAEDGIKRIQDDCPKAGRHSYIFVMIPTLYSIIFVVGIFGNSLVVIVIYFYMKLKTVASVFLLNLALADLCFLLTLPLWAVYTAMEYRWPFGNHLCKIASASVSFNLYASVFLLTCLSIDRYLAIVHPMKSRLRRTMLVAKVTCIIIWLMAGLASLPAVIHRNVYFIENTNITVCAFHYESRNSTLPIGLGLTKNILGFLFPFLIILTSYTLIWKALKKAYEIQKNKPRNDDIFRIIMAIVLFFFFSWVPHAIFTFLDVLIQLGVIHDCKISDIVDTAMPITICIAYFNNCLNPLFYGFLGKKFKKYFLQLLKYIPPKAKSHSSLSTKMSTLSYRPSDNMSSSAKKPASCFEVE
Procedure: (§1) The synthetic rat AT1 receptor gene, which was cloned in the shuttle expression vector pMT-2, was used for expression and mutagenesis, as described previously. […] In the experiments, cells were grown without a cell-growth supplement. To express the AT1 receptor protein, 10 µg of purified plasmid DNA per 10^7 cells was used in the transfection. Wild-type and mutated AT1 receptors were transiently transfected into cells using Lipofectamine 2000 liposomal reagent (Roche Applied Science, Penzberg, Germany). Cells were plated and grown and were 70–90% confluent at the time of transfection. We incubated plasmid DNA (10 µg)–lipid (10 µL) complexes for 5 min at room temperature and added and incubated the complexes with cells for 24 h. We then analyzed the parameters in transfected cells. […] Transfected cells that had been cultured for 48–72 h were harvested. Cell membranes were prepared using the nitrogen Parr bomb disruption or freeze–thaw methods.
(§2) Ligand (such as agonist or antagonist)-induced IP production through the AT1 receptor in transfected COS7 cells transiently expressing the AT1 receptor was measured to evaluate cell signaling as a second messenger for controlling blood pressure, since the increases in the intracellular Ca^2+ concentration were the result of IP accumulation, which indicated vasoconstriction. As a surrogate model with higher levels of AT1 receptor expression, COS7 cells are suitable for IP measurement because it is easy to detect differences in IP production. Cells were labeled for 24 h with [^3H]-myoinositol at 37 °C in DMEM containing 10% FBS. Next, the cells were washed with buffer 3 times and incubated with a medium containing 10 mM LiCl for 20 min; 0.1 µM Ang II or 1 µM ligands were added and incubation was continued for another 30 min at 37 °C. After incubation, the medium was removed, and total soluble IP was extracted from the cells using the perchloric acid extraction method, as described previously. Cells were plated at a field density of 5 × 10^3 cells/cm^2 in 60 mm dishes and cultured in a fresh growth medium at 37 °C in a DMEM 5% CO2 incubator. […] The culture medium was changed 48 h after transfection and 1.5 mL of 1 μCi/mL of [^3H]-myoinositol was added to each 60-mm dish at 37 °C in DMEM containing 10% FBS. After labeling, the cells were washed with buffer 3 times and incubated with a medium containing 10 mM LiCl for 20 min. The indicated concentration of ligands was added and incubation was continued for an additional 30 min at 37 °C. After incubation, the medium was removed, and total soluble IP was extracted from the cells using the perchloric acid extraction method. Total IP production was expressed as the sum of radioactivity, as described previously.

AT1 L112A receptor = biological target: T2, AT1 L112A receptor (Rattus norvegicus, UniProt P25095, L112A); assay: IP production assay in COS7 cells expressing AT1-L112A receptor; type: cell-based; conditions: 1 µM ligands or 0.1 µM Ang II, 30 min, n = 5, vs. (-)
T2 construct: expressed in transfected cells; host or cells: COS7
T2 sequence (P25095 1-359 L112A): T1 sequence (P25095 1-359 Q257A) with L112A, A257Q
Procedure: as §1, §2

Structure (SMILES) | Effect on IP production (AT1 Q257A receptor) | Effect on IP production (AT1 L112A receptor)
CCCc1nc(C(C)(C)O)c(C(N)=O)n1Cc1ccc(-c2cc(Cc3ccc(O)cc3)ccc2-c2nnn[nH]2)cc1 [R794847] | none of the compounds (R239470, R781253, and R794847) affected IP production | none of the compounds (R239470, R781253, and R794847) affected IP production
CCCc1nc(C(C)(C)O)c(C(=O)O)n1Cc1ccc(-c2cc(Cc3ccc(O)cc3)ccc2-c2nnn[nH]2)cc1 [R781253] | none of the compounds (R239470, R781253, and R794847) affected IP production | none of the compounds (R239470, R781253, and R794847) affected IP production
CCCc1nc(C(C)(C)O)c(C(N)=O)n1Cc1ccc(-c2ccccc2-c2nnn[nH]2)cc1 [R239470] | none of the compounds (R239470, R781253, and R794847) affected IP production | none of the compounds (R239470, R781253, and R794847) affected IP production
CCCc1nc(C(C)(C)O)c(C(=O)O)n1Cc1ccc(-c2ccccc2-c2nnn[nH]2)cc1 [Olmesartan, olmesartan] | significant reduction in basal IP production levels | significant reduction in basal IP production levels
